From article PMC11460631, “Inhibition of transient receptor potential vanilloid 3 channels by antimalarial hydroxychloroquine alleviates TRPV3-dependent dermatitis” (The Journal of Biological Chemistry, 2024) come the findings set out here.

The target of the assay is T1, TRPV3 (Homo sapiens, UniProt Q8NET8).
T1 construct: YFP or GFP; expressed in transfected cells; host or cells: HEK293T
T1 sequence (Q8NET8 1-790): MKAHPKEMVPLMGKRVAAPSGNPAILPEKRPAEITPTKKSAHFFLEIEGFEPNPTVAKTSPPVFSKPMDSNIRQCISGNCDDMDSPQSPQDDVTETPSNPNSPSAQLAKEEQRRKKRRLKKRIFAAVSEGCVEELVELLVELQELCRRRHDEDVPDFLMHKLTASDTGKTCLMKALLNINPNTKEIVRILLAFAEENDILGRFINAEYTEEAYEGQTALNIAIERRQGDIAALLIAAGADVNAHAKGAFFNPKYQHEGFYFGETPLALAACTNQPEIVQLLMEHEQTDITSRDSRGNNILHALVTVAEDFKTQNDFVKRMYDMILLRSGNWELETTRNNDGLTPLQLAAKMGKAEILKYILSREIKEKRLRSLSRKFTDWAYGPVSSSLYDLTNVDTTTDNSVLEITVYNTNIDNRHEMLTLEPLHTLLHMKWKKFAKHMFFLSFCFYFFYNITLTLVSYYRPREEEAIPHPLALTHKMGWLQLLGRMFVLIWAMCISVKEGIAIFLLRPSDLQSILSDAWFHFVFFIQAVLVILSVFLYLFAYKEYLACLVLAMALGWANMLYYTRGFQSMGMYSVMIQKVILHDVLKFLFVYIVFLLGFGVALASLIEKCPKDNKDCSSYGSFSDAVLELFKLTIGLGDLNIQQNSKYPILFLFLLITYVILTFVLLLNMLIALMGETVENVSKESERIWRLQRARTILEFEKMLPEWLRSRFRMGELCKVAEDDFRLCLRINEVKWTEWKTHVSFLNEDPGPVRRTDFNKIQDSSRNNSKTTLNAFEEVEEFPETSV
As to the kind of experiment: Single-channel recordings of TRPV3 in the inside-out configuration. Conditions: −80 mV. The assay is classed as cell-based. As to the method:
HEK293T cells are cultured using Dulbecco's modified Eagle's medium containing 10% fetal bovine serum and 1% penicillin-streptomycin in a cell incubator with 5% CO2 at 37 °C. Plasmids of murine TRPV1, TRPV4, TRPM8, and human TRPV3, TRPA1 are labeled with YFP or GFP as indicators for subsequent electrophysiological recordings. Complementary DNA constructs of ion channels were transiently transfected with Lipofectamine 3000 (Invitrogen). And 12 to 18 h after transient transfection, electrophysiological recordings were performed.
Patch-clamp recordings were carried out with a HEKA EPC10 amplifier controlled by PatchMaster software (HEKA; https://www.heka.com/products/products_main.html#soft_pm) ([36]). Patch pipettes were prepared from borosilicate glass and fire-polished to the resistance of 3 to 8 MΩ by P-97 puller for whole-cell recordings. For single-channel recordings, patch pipettes were fire-polished to a higher resistance of 6 to 10 MΩ. Both bath solution and pipette solution contained 130 mM NaCl, 10 mM glucose, 0.2 mM EDTA, and 3 mM Hepes and were adjusted to pH 7.2 to 7.4 with NaOH. Whole-cell recordings and single-channel recordings were performed at ± 80 mV. The current was sampled at 10 kHz and filtered at 2.9 kHz. All recordings were performed at room temperature (25 °C). A gravity-driven system (RSC-200, Bio-Logic) with freely rotated perfusion tubes was used for the perfusion of ligands. Bath and ligand solutions were delivered through separate tubes to minimize the mixing of solutions. Patch pipette holding cells were placed in front of the perfusion tube outlet for perfusion. Igor Pro versions 5.05 and 9.05 (WaveMetrics; https://www.wavemetrics.com/products/igorpro) were used to analyze the data.

Molecules are shown by their SMILES.

`CCN(CCO)CCCC(C)Nc1ccnc2cc(Cl)ccc12` (stereo not drawn) [HCQ, hydroxychloroquine]: the “TRPV3 channel open probability (Po)” value runs as follows: (50 μM HCQ with 1 mM 2-APB) 0.50 ± 0.03; (100 μM HCQ with 1 mM 2-APB) 0.13 ± 0.04. Also, the single-channel conductance (HCQ with 1 mM 2-APB, HCQ concentration not stated in the sentence (50 and 100 μM tested)) came to 37.97 ± 2.96 pS.
